Test results taken from patent publication US20100266691A1, “Agents and Methods to Stimulate Bone Healing” (BATTELLE MEMORIAL INSTITUTE, priority 2009, published 2010).

How the values were obtained:
[1] = test system: Mouse MC3T3-E1 pre-osteoblastic cells; assay: pre-osteoblast chemotaxis trans-well assay; format: cell-based; settings: for chemotactic effect of LPA in the presence of inhibitor: inhibitor added together with LPA
Protocol: Mouse MC3T3-E1 pre-osteoblastic cells were seeded into the upper wells of opaque trans-well chambers that had 8.0-micron pores. LPA was added to the growth medium in the lower chamber. The number of cells that migrated through the pores and attached to the underside of the microporous membrane served as a measure of chemotaxis (chemically directed cell migration). Cells were fluorescently labeled with calcein to allow visualization on the undersides of the opaque chambers. Utilizing this assay it was determined that LPA elicited a 6.5 fold increase in pre-osteoblast when compared to cells under control conditions (growth medium in the absence of LPA).

[2] = test system: Mouse MLO-Y4 osteocyte-like cells; assay: osteocyte dendrite outgrowth trans-well assay; format: cell-based
Protocol: Data are normalized to untreated control cells.
Among the effects of LPA on pre-osteoblasts is the induction of membrane extensions that resemble osteocyte dendrites. An assay was developed to study the ability of LPA to stimulate the outgrowth of dendritic processes from osteocytes in vitro, FIG. 3. Mouse MLO-Y4 osteocyte-like cells were seeded in the upper wells of opaque trans-well chambers having 1.0-micron pores which prevent the passage of whole cells but allow penetration by membrane extensions. Cells were fluorescently labeled with calcein to allow visualization of dendrites that were extended onto the undersides of the opaque chambers. It was determined that the presence of LPA in the lower chamber lead to a 7-fold increase in osteocyte dendrite outgrowth.
It is postulated that LPA enhances dendrite outgrowth in vivo, which can re-establish the osteocyte mechanosensory network during the regeneration of damaged bone.

[3] = test system: drill-hole defects in the cortex of rat femurs; assay: rat femur drill-hole defect healing with PLGA implants (microCT); format: in vivo; settings: PLGA+12.5 μg LPA vs PLGA+2.0 μg rhBMP2; six weeks post-treatment
Description: Defect regions (arrows) are enlarged on the right; dotted lines depict the original defect boarders.
The inventor has shown, using rat models, that LPA enhances skeletal regeneration in vivo. The bone growth stimulatory effects of LPA were compared to those of bone morphogenetic protein 2 (BMP-2), which is an FDA approved osteoinductive additive to bone implants. Referring to FIG. 4, drill-hole defects (3-mm diameter) were introduced into the cortex of rat femurs. Implants were fabricated utilizing poly(DL-lactic-co-glycolic acid) copolymers) (PLGA). The femurs were then implanted with either LPA or a therapeutic amount (2 μg) of BMP-2 and were compared to a non-treated control. Bone healing was measured as the rate of closure of the defect as visualized in living animals by micro-computed tomography (microTC). Implants were designed as follows: PLGA alone; PLGA+12.5 μg LPA; PLGA+2.0 μg rhBMP2.
One preferred combination of the invention is LPA and BMP-2. Utilizing a rat model, the affects of LPA and LPA with BMP-2 were studied. Rat femurs were drilled to introduce a defect as set forth for FIG. 4. Implants were prepared as described above with the addition of an implant having PLGA+2.0 μg rhBMP2+12.5 μg LPA. Each corresponding drill drill-hole was implanted with: A) nothing (control); B) LPA; C) BMP-2 or D) LPA+BMP-2.

[4] = test system: MC3T3-E1 cells; assay: global gene expression profiling (Affymetrix mouse whole genome microarrays); format: cell-based; settings: LPA 1.0 μM
Protocol: LPA also modulates the expression of a large set of pre-osteoblast genes linked to development (FIG. 2). MC3T3-E1 cells were grown in the presence or absence of a physiological level of LPA (1.0 μM). After growth of the cells, total RNA was isolated for use in global gene expression profiling. Gene expression was measured utilizing Affymetrix mouse whole genome microarrays. Data were analyzed using a suite of bioinformatics software. […] As shown, genes involved in cell development are the most statistically significant group affected by LPA.

Compound	chemotactic effect of LPA in the presence of inhibitor [1]	increase in osteocyte dendrite outgrowth ([2]; LPA in lower chamber, 1.0-micron pores, normalized to untreated control cells)	stimulation of dendritogenesis ([2]; each concentration tested)	bone healing (closure of the defect) compared with BMP-2 [3]	number of genes regulated in LPA-treated cells [4]	increase in pre-osteoblast chemotaxis compared to cells under control conditions ([1]; LPA in lower chamber, 8.0-micron pores, control = growth medium in the absence of LPA)
Cc1noc(-c2ccc(CSCCC(=O)O)cc2)c1NC(=O)OC(C)c1ccccc1Cl (stereo not shown) [Ki16425]	decreased chemotactic effect	–	–	–	–	–
CCCCCCCC/C=C\CCCCCCCC(=O)OC[C@@H](O)COP(=O)([O-])O.[Na+] [LPA, lysophosphatidic acid]	–	7 fold	significantly stimulated dendritogenesis	stimulatory properties of LPA exceed those of BMP-2	513 genes	6.5 fold
pertussis toxin	decreased chemotactic effect	–	–	–	–	–
